Results from ChEMBL document CHEMBL3352710, “Endoperoxide polyketides from a Chinese Plakortis simplex: further evidence of the impact of stereochemistry on antimalarial activity of simple 1,2-dioxanes” (Bioorg Med Chem, 2014).

Tests used:
Plasmodium falciparum [1] = assay: Antimalarial activity against chloroquine-sensitive Plasmodium falciparum D10 after 72 hrs by lactate dehydrogenase assay; assay type: functional
Plasmodium falciparum [2] = assay: Antimalarial activity against chloroquine-resistant Plasmodium falciparum W2 after 72 hrs by lactate dehydrogenase assay; assay type: functional, organism-based; settings: W2, 72 h
[3] = Plasmodium falciparum, D10, 72 h, read-out: IC50

SMILES: CC/C=C/[C@H](CC)C[C@]1(CC)C=C(CC)[C@H](CC(=O)OC)OO1
- IC50 (Plasmodium falciparum [1]; [3]): 3.89 µM
- IC50 (Plasmodium falciparum [2]): 2.91 µM

SMILES: CCCC[C@H](CC)C[C@]1(CC)C=C(CC)[C@H](CC(=O)OC)OO1
- IC50 (Plasmodium falciparum [1]; [3]): 4.05 µM
- IC50 (Plasmodium falciparum [2]): 2.7 µM

SMILES: CCCC[C@H](C)C[C@]1(CC)C=C(CC)[C@H](CC(=O)OC)OO1
- IC50 (Plasmodium falciparum [1]; [3]): 1.77 µM
- IC50 (Plasmodium falciparum [2]): 1.56 µM

SMILES: CCCC[C@H](CC)C[C@@]1(CC)C[C@H](CC)[C@H](CC(=O)OC)OO1
- IC50 (Plasmodium falciparum [1]; [3]): 6.18 µM
- IC50 (Plasmodium falciparum [2]): 4.98 µM

SMILES: CCCC[C@H](CC)C[C@@]1(CC)C[C@H](CC)[C@@H](CC(=O)OC)OO1
- IC50 (Plasmodium falciparum [1]): Not Active
- IC50 (Plasmodium falciparum [2]): 11.4 µM

SMILES: CCCCC(C)C[C@H](CC)C[C@@]1(C)C[C@H](CC)[C@@H](CC(=O)OC)OO1 (stereo not given in full)
- IC50 (Plasmodium falciparum [1]; [3]): 5.12 µM
- IC50 (Plasmodium falciparum [2]): 4.1 µM

SMILES: CCCC[C@H](CC)C[C@@]1(C)C[C@@H](CC)[C@@H](CC(=O)OC)OO1
- IC50 (Plasmodium falciparum [1]; [3]): 0.9 µM
- IC50 (Plasmodium falciparum [2]): 0.43 µM

SMILES: C[C@@H]1CC[C@H]2[C@@H](C)C(=O)O[C@@H]3O[C@@]4(C)CC[C@@H]1[C@]32OO4 [ARTEMISININ]
- IC50 (Plasmodium falciparum [2]): 0.009 µM
